In general, IC50 refers to the concentration that inhibits the measured activity by half. As a reminder, the EC50 is the midpoint of the concentration-response curve. Lower therefore signals a more potent agent.

For assay [1], the target named is PD-L1 His protein / PD-1 Fc protein (Homo sapiens (Human), UniProt Q9NZQ7). In words: HTRF Assay (PD-1/PD-L1 interaction). Format: binding. The settings on record: PD-L1 His 6 nM, PD-1 Fc 6 nM.
The next assay concerns the target human PD-L1 (Homo sapiens (Human), UniProt Q9NZQ7). Briefly: T cell activation luciferase reporter cell culture system (T Cell Activation Assay). In kind it is cell-based. The settings on record: luciferase reporter assay; PD-L1 aAPC/CHO-K1 cells with PD-1 effector Jurkat T cells. A general note: A reporter such as luciferase makes a cellular process visible.

PD-L1 His protein / PD-1 Fc protein, sequence (Q9NZQ7 19-238): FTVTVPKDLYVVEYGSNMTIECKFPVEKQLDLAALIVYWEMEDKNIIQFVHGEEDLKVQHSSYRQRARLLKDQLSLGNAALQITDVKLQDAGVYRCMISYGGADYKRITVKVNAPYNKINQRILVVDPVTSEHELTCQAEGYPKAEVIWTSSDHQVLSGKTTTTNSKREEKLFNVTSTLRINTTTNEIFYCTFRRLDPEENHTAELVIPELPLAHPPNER
human PD-L1, sequence (Q9NZQ7 19-290): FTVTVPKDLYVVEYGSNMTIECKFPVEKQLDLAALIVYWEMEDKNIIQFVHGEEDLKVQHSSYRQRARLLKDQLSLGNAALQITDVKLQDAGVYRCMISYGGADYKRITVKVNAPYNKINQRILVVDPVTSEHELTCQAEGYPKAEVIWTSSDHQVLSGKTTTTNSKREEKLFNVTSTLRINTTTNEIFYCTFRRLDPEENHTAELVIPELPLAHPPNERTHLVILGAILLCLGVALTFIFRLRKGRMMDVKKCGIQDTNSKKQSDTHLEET

For `COc1nc(-c2cccc(-c3ccnc(-c4ccc5c(CNC6CCN(C(C)=O)CC6)nn(C)c5c4)c3Cl)c2Cl)ccc1CNC1CCN(C(C)=O)CC1` [Example 263, 1-(4-(((6-(3-(2-(3-(((1-Acetylpiperidin-4-yl)amino)methyl)-1-methyl-1H-indazol-6-yl)-3-chloropyridin-4-yl)-2-chlorophenyl)-2-methoxypyridin-3-yl)methyl)amino)piperidin-1-yl)ethan-1-one], the midpoint of inhibition in assay [1], the IC50, lay at 1.71 nM. On human PD-L1, this molecule came in with an EC50 of no less than 10000 nM.

In assay [1], `COc1cc(-c2nccc(-c3cccc4c3CC[C@@H]4Oc3nc(OC)c(CNC[C@@H]4CCC(=O)N4)cc3C(F)(F)F)c2Cl)ccc1CNC[C@@H]1CCC(=O)N1` [Example 269, (S)-5-((((6-(((S)-4-(3-chloro-2-(3-methoxy-4-(((((S)-5-oxopyrrolidin-2-yl)methyl)amino)methyl)phenyl)pyridin-4-yl)-2,3-dihydro-1H-inden-1-yl)oxy)-2-methoxy-5-(trifluoromethyl)pyridin-3-yl)methyl)amino)methyl)pyrrolidin-2-one] registered an IC50 of 12.5 nM. This molecule also displayed a 50% effective concentration (EC50) at human PD-L1 of 5.54 nM.

As to `COc1cc(-c2nccc(-c3cccc(-c4ccc(CNC[C@H](C)O)c(OC)n4)c3Cl)c2Cl)cc2c1CN(CC(N)=O)CC2` [Example 275, (S)-2-(6-(3-Chloro-4-(2-chloro-3-(5-(((2-hydroxypropyl)amino)methyl)-6-methoxypyridin-2-yl)phenyl)pyridin-2-yl)-8-methoxy-3,4-dihydroisoquinolin-2(1H)-yl)acetamide], it took 5.36 nM to reach half-maximal inhibition in assay [1] (IC50). Further, the 50% effective concentration (EC50) on human PD-L1 is no less than 10000 nM.

In assay [1], `CNCc1ccc(-c2cccc(-c3ccnc(-c4ccc5c(CNC)cn(C)c5c4)c3Cl)c2Cl)nc1OC` [Example 276, 1-(6-(2-Chloro-3-(3-chloro-2-(1-methyl-3-((methylamino)methyl)-1H-indol-6-yl)pyridin-4-yl)phenyl)-2-methoxypyridin-3-yl)-N-methylmethanamine] returned an IC50 of 1.04 nM. In addition, the EC50 on human PD-L1 was no less than 10000 nM.

In turn, `CNCc1ccc(-c2cccc(-c3ccnc(-c4ccc(CN5CC[C@H](C(=O)OC(C)C)C5)c(OC)c4)c3Cl)c2Cl)nc1OC` [Example 278, Isopropyl (S)-1-(4-(3-chloro-4-(2-chloro-3-(6-methoxy-5-((methylamino)methyl)pyridin-2-yl)phenyl)pyridin-2-yl)-2-methoxybenzyl)pyrrolidine-3-carboxylate] gave an IC50 in assay [1] of 404 nM. In addition, on human PD-L1, the concentration for a half-maximal effect (EC50) is 258 nM.

In the case of `CNCc1ccc(-c2cccc(-c3ccnc(-c4ccc(CNCCC(=O)OC(C)C)c(OC)c4)c3Cl)c2Cl)nc1OC` [Example 279, Isopropyl 3-((4-(3-chloro-4-(2-chloro-3-(6-methoxy-5-((methylamino)methyl)pyridin-2-yl)phenyl)pyridin-2-yl)-2-methoxybenzyl)amino)propanoate], it took 12.4 nM to reach half-maximal inhibition in assay [1] (IC50). This molecule showed an EC50 on human PD-L1 of 224 nM.

`CNCc1ccc(-c2cccc(-c3ccnc(-c4ccc(CNC[C@@H](O)CC(=O)OC(C)C)c(OC)c4)c3Cl)c2Cl)nc1OC` [Example 280, Isopropyl (S)-4-((4-(3-chloro-4-(2-chloro-3-(6-methoxy-5-((methylamino)methyl)pyridin-2-yl)phenyl)pyridin-2-yl)-2-methoxybenzyl)amino)-3-hydroxybutanoate]: in assay [1], it took 28.7 nM to reach half-maximal inhibition (IC50). On human PD-L1, this molecule came in with an EC50 of 111 nM.

Take `CNCc1ccc(-c2cccc(-c3ccnc(-c4ccc(CN5CC6(CC(C(=O)OC(C)C)C6)C5)c(OC)c4)c3Cl)c2Cl)nc1OC` [Example 281, Isopropyl 2-(4-(3-chloro-4-(2-chloro-3-(6-methoxy-5-((methylamino)methyl)pyridin-2-yl)phenyl)pyridin-2-yl)-2-methoxybenzyl)-2-azaspiro[3.3]heptane-6-carboxylate]: it took 10.9 nM to reach half-maximal inhibition in assay [1] (IC50). This molecule also came in with an EC50 on human PD-L1 of 153 nM.

The record behind these values is patent publication US20240246964A1 (Arbutus Biopharma Corporation, priority 2021, published 2024).
